Experimental data: patent US5650442A (priority 1994, dated 1997)
“Also recorded” adds a separate entry of the source.

How the values were obtained:
[1] = tested on: Chinese hamster V79 lung fibroblasts; assay: Radiation survival of hypoxic V79 cells (metabolism-mediated oxygen depletion), clonogenic assay, SER; type: cell-based; conditions: for modification of hypoxic radiosensitivity: 2.0 mM; for SER: 2.00 mM, hypoxic, 1% surviving fraction level, ± SD
Experimental: (§1) Chinese hamster V79 lung fibroblasts were cultured in F12 medium supplemented with 10% fetal calf serum and antibiotics. […] The assay system was specifically designed to evaluate radiation sensitivity of cells exposed to radiation under both aerobic and hypoxic conditions (Mitchell et al., Radiat. Res., 96, 422-428 (1983); Russo et al., Radiat. Res., 103, 232-239 (1985); and DeGraff et al., Int. J. Radiat. Oncol. Biol. Phys., 16, 1021-1024 (1989)).
(§2) When cultured cells were exposed to DEA/NO in subsequent examples, DEA/NO in F12 medium with 10 mM HEPES buffer, pH 7.0, was used. […] Control cells in subsequent examples were exposed to 0.02N NaOH, instead of DEA/NO.
The induction of hypoxia in dense cell suspensions by metabolism-mediated oxygen depletion was carried out as described by Mitchell et al. (supra) and Phillips et al. (Int. J. Radiat. Oncol. Biol. Phys., 12, 1627-1635 (1986)). Briefly, stock cultures of exponentially growing Chinese hamster V79 lung fibroblasts in 850 cm^2 roller bottles were trypsinized, rinsed with medium, and counted. Samples of 10^8 cells were then placed in 15 ml centrifuge tubes, centrifuged at 1,000 rpm for 5 min at 25° C., and rinsed once with medium or medium containing DEA/NO (final concentrations ranging from 0.1-2.0 mM), nitrite, diethylamine, or DEA/NO that had been allowed to decompose in full medium overnight at 37° C.
The cell suspension was taken up into a 3 ml glass syringe with a 18 gauge spinal needle. Air bubbles were removed, and a 25 gauge needle was fitted onto the syringe. The syringe was rotated by hand at room temperature for 20 min to allow for cellular metabolic oxygen consumption. The syringe was then placed in a lucite block and irradiated. After a given dose of radiation, 1-3 drops of cell suspension were discarded, and 1-2 drops were collected in tubes containing drug-free medium. In this manner an entire hypoxic survival curve for a given treatment condition can be obtained from a single syringe.
(§3) Hypoxic Chinese hamster V79 lung fibroblasts of Example 2 were irradiated at room temperature with 4 MeV photons from a linear accelerator at a dose rate of 1.5 Gy/min. Full electron equilibrium was ensured for all irradiations.
(§4) Following irradiation, the various cell suspensions were pipetted, counted, diluted, and plated for macroscopic colony formation. Each dose determination was plated in triplicate and experiments were repeated a minimum of two times. Plates were incubated for seven days, after which colonies were fixed with methanol/acetic acid (3:1), stained with crystal violet, and counted. Colonies containing >50 cells were scored and graphed as FIGS. 1-3. Error bars in the graphs represent the standard deviation of the mean and are shown when larger than the symbol used to designate a data point. Survival curve data were fitted using a linear quadratic model of Albright (Radiat. Res., 112, 331-340 (1987)), and the survival curves shown in the figures represent the best fit curves for the experimental data points. Sensitizer enhancement ratios (SER) were calculated by dividing the radiation dose for control hypoxic conditions by the radiation dose for various agents under hypoxic conditions at the 1% surviving fraction level.
Radiation survival curves for V79 cells exposed to varying concentrations of DEA/NO and various DEA/NO decomposition products under hypoxic conditions (metabolic hypoxia induction) are shown in FIG. 1A, which is a graph of the surviving fraction versus dose (Gy).

[2] = tested on: Chinese hamster V79 lung fibroblasts; assay: Cytotoxicity of the agents alone to V79 cells, clonogenic assay; conditions: 2.0 mM
Experimental: as §1, §2
Radiation survival curves for V79 cells exposed to varying concentrations of DEA/NO and various DEA/NO decomposition products under hypoxic conditions (metabolic hypoxia induction) are shown in FIG. 1A, which is a graph of the surviving fraction versus dose (Gy). Lines in FIG. 1A represent control (.circle-solid.) and 0.1 mM (Δ), 0.5 mM (.largecircle.), 1.0 mM (.quadrature.), and 2.0 mM (.box-solid.) DEA/NO. Survival curves were corrected for drug cytotoxicity as appropriate.
DEA/NO (2.0 mM) was allowed to decompose to liberate NO in medium maintained at 37° C. overnight in a flask open to the air for use as an additional control. The medium containing the DEA/NO decomposition products was then used to evaluate possible effects on radiosensitization.

[3] = tested on: Chinese hamster V79 lung fibroblasts; assay: Radiation survival of aerobic V79 cells, clonogenic assay; type: cell-based; conditions: 2.0 mM
Experimental: as §1, §2, §4

normal tissues = conditions: clinical radiotherapy trials; cited from earlier work
[4] = tested on: Chinese hamster V79 cells; assay: Survival of hypoxic V79 cells after a single radiation dose; type: cell-based; conditions: vs control cells
Experimental: Chinese hamster V79 cells were exposed to 15 Gy radiation under hypoxic conditions in the absence or presence of 1 mM SPER/NO (H2 N(CH2)3 N[N(O)NO]^- (CH2)4 NH2^+ (CH2)3 NH2).
Chinese hamster V79 cells were exposed to 20 Gy radiation under hypoxic conditions in the absence or presence of 2 mM SNAP.
Chinese hamster V79 cells were exposed to a single 20 Gy dose of radiation in the absence or presence of 2 mM SIN-1 or PAPA/NO. […] The data are consistent with the requirement of SIN-1 for oxygen, unlike the NONOates, which release NO independent of oxygen levels.

[5] = tested on: Chinese hamster V79 fibroblasts; assay: Protection of V79 cells from cisplatin cytotoxicity; type: cell-based; conditions: 1 mM, 1 hr
Experimental: Chinese hamster V79 fibroblasts were exposed to varying concentrations of cisplatin under aerobic conditions for 1 hr in the presence or absence of 1 mM PAPA/NO, n-propyl-1,3-propane diamine (PPD), or released PAPA/NO under aerobic conditions. Methods used were as described in Examples 2 and 13.

[6] = tested on: Chinese hamster V79 fibroblasts; assay: Chemosensitization of V79 cells to bioreductive agents (mitomycin C, SR 4233); conditions: hypoxic, 1 hr
[7] = tested on: transplantable murine tumor; conditions: mouse, in vivo; cited from earlier work
[8] = tested on: embryohal ovarian carcinoma (EOC) ascites tumors; assay: Survival of mice with EOC ascites tumors treated with melphalan with or without DEA/NO; type: in vivo, C3H mice
Experimental: Female C3H mice with embryohal ovarian carcinoma (EOC) ascites tumors were generated by intraperitoneal injection of 1.0×10^5 EOC cells at 10 weeks. Eight days later, when ascites were grossly evident, the animals were injected intraperitoneally with phosphate-buffered saline (PBS) as a control, melphalan (6.25 mg/kg), or melphan in combination with DEA/NO (70 mg/kg). Animals were assessed daily for survival.
FIG. 17 is a graph of % survival of animals versus days after treatment showing survival curves for animals treated with melphalan in the presence or absence of DEA/NO compared to control animals. Median survival of the control group was 15 days. Median survival of the group of mice treated with melphalan alone was 20 days, whereas median survival of the group of mice treated with melphalan and DEA/NO was 27 days.

[9] = tested on: Chinese hamster V79 lung fibroblasts; assay: Radiation survival of hypoxic V79 monolayers gassed with nitrogen and exposed to NO gas; type: cell-based
Experimental: as §3, §4

cells in culture = conditions: aerobic (~20% oxygen) vs hypoxic (<0.5% oxygen); cited from earlier work
rodent tumors = conditions: hyperbaric oxygen (100%); cited from earlier work
hypoxic cells = conditions: without the nitrobenzoyl group; cited from earlier work
hypoxic bacterial cells = conditions: cited from earlier work
lungs = conditions: NO gas, in vivo; cited from earlier work

CCNCC [Diethylamine, diethylamine, reference compound]
modification of hypoxic radiosensitivity [1]: nor did any of these agents significantly modify hypoxic radiosensitivity | SER [1]: 1.0 | cytotoxicity of decomposition products alone [2]: Neither nitrite, diethylamine, or decomposed DEA/NO alone resulted in any cytotoxicity | effect on aerobic radiosensitivity [3]: did not significantly alter the aerobic radiosensitivity

COCC(O)Cn1ccnc1[N+](=O)[O-] (centres unmarked) [Misonidazole, misonidazole]
toxicity to normal tissues (normal tissues): toxic to normal tissues, causing peripheral neuropathy

O=NO [Nitrite, nitrite, reference compound]
modification of hypoxic radiosensitivity [1]: nor did any of these agents significantly modify hypoxic radiosensitivity | SER [1]: 1.0 | cytotoxicity of decomposition products alone [2]: Neither nitrite, diethylamine, or decomposed DEA/NO alone resulted in any cytotoxicity | effect on aerobic radiosensitivity [3]: did not significantly alter the aerobic radiosensitivity

CCCN(CCCN)/[N+]([O-])=N/O [PAPA/NO]
susceptibility of hypoxic cells to radiation ([4]; 2 mM plus 20 Gy, Example 10): much more susceptible to radiation than control cells | protection against aerobic cisplatin-induced cytotoxicity [5]: protected V79 fibroblasts against aerobic cisplatin-induced cytotoxicity | enhancement of hypoxic cytotoxicity of SR 4233 ([6]; 25 μm SR 4233, 1 mM): enhance the hypoxic cytotoxicity of SR 4233 | colonies formed when 100,000 cells were plated ([6]; 25 μm SR 4233 plus 1 mM): no colonies were formed

Cl.N=c1c[n+](N2CCOCC2)[n-]o1 [SIN-1, 3-morpholino-sydnonimine hydrochloride, reference compound]
susceptibility of hypoxic cells to radiation ([4]; 2 mM plus 20 Gy, Example 10): not significantly sensitized to radiation as compared to control cells | enhancement of tumor radiation sensitivity [7]: enhances the radiation sensitivity of a transplantable murine tumor

CC(=O)N[C@H](C(=O)O)C(C)(C)SN=O [SNAP, S-nitroso-N-acetyl penicillamine, reference compound]
susceptibility of hypoxic cells to radiation ([4]; 2 mM plus 20 Gy, Example 7): significantly more susceptible to radiation than control cells

NCCCNCCCCN(CCCN)/[N+]([O-])=N/O [SPER/NO]
susceptibility of hypoxic cells to radiation ([4]; 1 mM plus 15 Gy): more susceptible to radiation than control cells

N[C@@H](Cc1ccc(N(CCCl)CCCl)cc1)C(=O)O [melphalan]
Overall survival vs control group ([8]; log-rank testing): significantly longer than the control group | Median survival ([8]; melphalan 6.25 mg/kg i.p., with or without DEA/NO 70 mg/kg): 20 days

O=O [oxygen]
EC50 ([9]; Cricetulus griseus, Fibroblast, hypoxic cell radiosensitization, read-out: k value (concentration required to yield half the maximum effect)): 2500 µg/mL | enhancement of killing of cells in culture with X-rays (factor) (cells in culture): 2-3 | hypoxic radiosensitization in rodent tumors (rodent tumors): some degree of hypoxic radiosensitization in rodent tumors

NCCCCNCCCN [spermidine]
sensitizing properties (hypoxic cells): failed to demonstrate any sensitizing properties whatsoever

NCCCNCCCCNCCCN [spermine]
sensitizing properties (hypoxic cells): failed to demonstrate any sensitizing properties whatsoever

nitric oxide [NO gas]
SER ([9]; 10^5 ppm NO, hypoxic): 3.2 | hypoxic cell radiosensitization ([9]; NO gas vs control / oxygen): potent hypoxic cell radiosensitizer; also recorded: not as efficient as oxygen in hypoxic cell radiosensitization | toxicity in the absence of radiation (hypoxic bacterial cells): nontoxic in the absence of radiation | radiosensitization of hypoxic bacterial cells (hypoxic bacterial cells; ionizing radiation): sensitizes hypoxic bacterial cells to ionizing radiation | damage on administration of high concentrations (lungs): damage to the lungs
